Key:
Type in all cases: cell-based, human
[1] = tested on: breast cancer cells (MCF-7); test: Organ-on-a-chip containing breast cancer cells, doxorubicin treatment, optical microscope; settings: 100 μM doxorubicin in media supply chamber; 24 hours after treatment; MCF-7 cultured 2 days on chip; compared with control group
Procedure: (§1) As for one set of a media supply chamber and a media recovery chamber included in the organ-on-a-chip of the present invention fabricated in Example 1, 200 μl of media (RPMI 1640 (Gibco) supplemented with 10% fetal bovine serum (FBS, Gibco)) was loaded in each of the chambers. The flow of media was connected between each chamber by using a pipette, and then the media was filled inside the media channel located at both sides to finally form the flow of media. Particularly, it was confirmed that a boundary of the media was formed between the media channel and the cell chamber due to surface tension, with the inverted micro-weir structure serving as a boundary.
Then, 3×10^4 breast cancer cells (Michigan Cancer Foundation-7, MCF-7) were injected into the cell inlet by using a pipette, and the injected breast cancer cells were injected into the cell chamber by pipetting. […] Subsequently, the cells were cultured in a humidified incubator for 2 days under the conditions of 37° C. and 5% CO2.
After 100 μM doxorubicin (TOCRIS) was added to the media supply chamber of the organ-on-a-chip containing breast cancer cells fabricated in Example 2-1-1, a change in breast cancer cells in the organ-on-a-chip due to doxorubicin was observed using an optical microscope, and the degree of damage to the breast cancer cells was compared and analyzed with a control group (FIG. 6). […]

[2] = tested on: cervical cancer cells (HeLa); test: Organ-on-a-chip containing cervical cancer cells, doxorubicin treatment, optical microscope; settings: 100 μM doxorubicin in media supply chamber; 24 hours after treatment; HeLa cultured 2 days on chip; compared with control group
Procedure: as §1, with “(Dulbecco Modified Eagle Medium (DMEM, Gibco)” for “(RPMI 1640 (Gibco)”, “FBS)” for “fetal bovine serum (FBS, Gibco))”
Then, 3×10^4 cervical cancer cells (HeLa) were injected into the cell inlet by using a pipette, and the injected cervical cancer cells (HeLa) were injected into the cell chamber by pipetting. […] Subsequently, the cells were cultured in a humidified incubator for 2 days under the conditions of 37° C. and 5% CO2.
After 100 μM doxorubicin was added to the media supply chamber of the organ-on-a-chip containing cervical cancer cells (HeLa) fabricated in Example 2-2-1, a change in cervical cancer cells in the organ-on-a-chip due to doxorubicin was observed using an optical microscope, and the degree of damage to the cervical cancer cells was compared and analyzed with a control group (FIG. 7). […]

[3] = tested on: liver cancer cells (HepG2); test: Organ-on-a-chip containing liver cancer cells, doxorubicin treatment, optical microscope; settings: 100 μM doxorubicin in media supply chamber; 24 hours after treatment; HepG2 cultured 2 days on chip; compared with control group
Procedure: As for one set of a media supply chamber and a media recovery chamber included in the organ-on-a-chip of the present invention fabricated in Example 1, 200 μl of media (Minimum Essential Media Eagle (MEM, high-glucose, Gibco) supplemented with 25 mM HEPES (4-(2-hydroxyethyl)-1-piperazineethanesulfonic acid, Gibco), 25 mM NaHCO3 (Sodium bicarbonate, Sigma-Aldrich), 10% (v/v) FBS, and P/S (100 Uml-1penicillin/100 Uml-1streptomycin, Sigma-Aldrich Co., MO)) was loaded in each of the chambers. The flow of media was connected between each chamber by using a pipette, and then the media was filled inside the media channel located at both sides to finally form the flow of media. Particularly, it was confirmed that a boundary of the media was formed between the media channel and the cell chamber due to surface tension, with the inverted micro-weir structure serving as a boundary. […]
After 100 μM doxorubicin was added to the media supply chamber of the organ-on-a-chip containing liver cancer cells (HepG2) fabricated in Example 2-3-1, a change of liver cancer cells in the organ-on-a-chip due to doxorubicin was observed using an optical microscope, and the degree of damage to the liver cancer cells was compared and analyzed with a control group (FIG. 8). […]

SMILES: COc1cccc2c1C(=O)c1c(O)c3c(c(O)c1C2=O)C[C@@](O)(C(=O)CO)C[C@@H]3O[C@H]1C[C@H](N)[C@H](O)[C@H](C)O1 [doxorubicin]
- degree of damage to the breast cancer cells (cell death) [1]: most of the breast cancer cells cultured in the organ-on-a-chip were dead
- degree of damage to the cervical cancer cells (cell death) [2]: most of the cervical cancer cells cultured in the organ-on-a-chip were dead
- degree of damage to the liver cancer cells (cell death) [3]: most of the liver cancer cells cultured in the organ-on-a-chip were dead

Reference: patent US20250110113A1, “HUMAN ORGAN-ON-A-CHIP HAVING REVERSE MICRO-WEIR STRUCTURE AND USES THEREOF” (HUMANASE, priority 2022, published 2025)
